{"source": "patent US20240016779A1", "about": "“COMPOSITION FOR PREVENTING AND TREATING INFLAMMATORY DISEASE AND AUTOIMMUNE DISEASES AND NON-ALCOHOLIC FATTY LIVER DISEASE, COMPRISING EXTRACT DERIVED FROM CENTIPEDA MINIMA” (D-NATURE CO., LTD., priority 2020, published 2024)", "format_in_all_cases": "cell-based", "key": {"LX-2 cells": {"tested_on": "LX-2 cells", "assay": "Liver fibrosis-related protein expression", "conditions": "40 μM, 24 hours", "protocol": "Specifically, the evaluation was performed by using LX-2 cells, which are hepatic stellate cells. LX-2 cells treated with TGF-P1 at a concentration of 5 ng/ml were treated with JAKI at concentrations of 0 μM, 20 μM, and 40 μM, and then cultured under the same conditions for 24 hours. Thereafter, the protein expression levels of TGF-131, collagen type-1, MMP-2, TIMP1, and GAPDH, and the protein expression ratios of TGF-131, collagen type-1, MMP-2, and TIMP1 compared to GAPDH were analyzed.\nSpecifically, the evaluation was performed by using LX-2 cells, which are hepatic stellate cells. The LX-2 cells treated with 5 ng/ml TGF-P1 were treated with elafibranor at concentrations of 0 μM, 20 μM, 40 μM, and 80 μM in the control group of the present invention, and the cultured for 24 hours under the same conditions. Then, the protein expression ratios of TGF-131, collagen type-1, MMP-2, and TIMP1 compared to GAPDH were analyzed."}, "3T3-L1 cells [1]": {"tested_on": "3T3-L1 cells", "assay": "Adipocyte differentiation inhibitory effect", "conditions": "tested 0.16, 0.31, 0.63, 1.25 μg/ml", "protocol": "To confirm the effect of the Centipeda minima extract for inhibiting non-alcoholic steatohepatitis, an experiment was performed on preadipocytes according to an inflammatory disease treatment agent.\nSpecifically, the evaluation was performed by using 3T3-L1 cells, which are preadipocytes, and after the 3T3-L1 cells were treated with each of JAKI and elafibranor at concentrations of 0 μg/ml, 0.16 μg/ml, 0.31 μg/ml, 0.63 μg/ml, and 1.25 μg/ml and then cultured for 6 hours under the same conditions, the changes of the 3T3-L1 cells were analyzed."}, "3T3-L1 cells [2]": {"tested_on": "3T3-L1 cells", "assay": "TNF-a induced MCP-1 production in preadipocytes", "conditions": "0.16 to 2.5 μg/ml", "protocol": "To confirm the non-alcoholic steatohepatitis inhibitory effect of the Centipeda minima extract, an experiment was performed with TNF-a induced MCP-1 production in preadipocytes according to an inflammatory disease treatment agent.\n(§1) Specifically, the evaluation was performed by using 3T3-L1 cells, which are preadipocytes, and after the 3T3-L1 cells were treated with each of JAKI and elafibranor at concentrations of 0 μg/ml, 0.16 μg/ml, 0.31 μg/ml, 0.63 μg/ml, 1.25 μg/ml, and 2.5 μg/ml and then cultured for 6 hours under the same conditions, the changes of the MCP-1 production were analyzed."}, "3T3-L1 cells [3]": {"tested_on": "3T3-L1 cells", "assay": "TNF-a induced IL-6 production in preadipocytes", "conditions": "0.16 to 2.5 μg/ml", "protocol": "To confirm the non-alcoholic steatohepatitis inhibitory effect of the Centipeda minima extract, an experiment was performed with INF-a induced IL-6 production in preadipocytes according to an inflammatory disease treatment agent.\nas §1, with “IL-6” for “MCP-1”"}}}
{"molecule": "CSc1ccc(C(=O)/C=C/c2cc(C)c(OC(C)(C)C(=O)O)c(C)c2)cc1", "note": "[elafibranor]", "values": [{"measurement": "expression ratio of MMP-2 protein compared to GAPDH", "setting": "LX-2 cells", "result": "decreased"}, {"measurement": "expression ratio of TGF-β1 protein compared to GAPDH", "setting": "LX-2 cells", "result": "decreased"}, {"measurement": "expression ratio of TIMP1 protein compared to GAPDH", "setting": "LX-2 cells", "result": "decreased"}, {"measurement": "expression ratio of collagen type-1 protein compared to GAPDH", "setting": "LX-2 cells", "result": "decreased"}, {"measurement": "concentration from which adipocyte differentiation is inhibited", "setting": "3T3-L1 cells [1]", "result": "≥ 0.63", "unit": "µg/mL"}, {"measurement": "change in the MCP-1 production", "setting": "3T3-L1 cells [2]", "result": "no change"}, {"measurement": "change in the IL-6 production", "setting": "3T3-L1 cells [3]", "result": "no change"}]}
